Entries after “also recorded” stand apart in the source; their conditions may differ.
Columns and labels:
mice = settings: cited from earlier work
bone marrow = assay: Bone marrow inhibition in the skin allograft test; type: in vivo, Fischer rats; settings: i.p., 10 or 20 days
Text: (§1) In the next place, the present inventors conducted a skin graft test with rats. In accordance with the method of Denham et al. (Denham et al., International Archives of Allergy and Applied Immunology, vol. 62, pp. 443-458, 1980), the skin of the tail of SHR rats was peeled and allografted onto Fischer rats. […] The inhibitory action of spergualin on tissue rejections is expected to manifest itself not only in skin transplantation but also in the transplantation of such organs as the kidney, heart, spleen, lung, liver, bone marrow and endocrine organs.
(§2) Skin sections (5×10 mm) were peeled from the tails of SHR rats (female, 10 wk old) and transplanted to Fischer rats (female, 10 wk old) on the back. Varying doses of spergualin were administered intraperitoneally for a consecutive period of 10 or 20 days starting on the day following the transplantation. Complete necrosis of the graft was used as a measure of rejection and the inhibitory action of the compound was evaluated in terms of how long the rejection was postponed. […] The longer the period of administration, the greater the inhibitory action.

[1] = test system: Skin allograft rejection (SHR to Fischer rats); assay: Inhibition of rejection of skin allograft; type: in vivo
Text: as §1, §2

Structure (SMILES): N=C(N)NCCCCC(O)CC(=O)NC(O)C(=O)NCCCCNCCCN (stereo not drawn) [spergualin, Spergualin]
- cumulative toxicity (mice): No cumulative toxicity was observed
- lethality (mice; gradual intravenous administration of 80 mg/kg): not lethal
- LD50 (mice; intraperitoneal): approximately 150 mg/kg
- inhibition of the bone marrow (bone marrow): No inhibition of the bone marrow was observed; also recorded: No such side effects as bone marrow inhibition were observed
- dose dependence of inhibitory action on skin allograft rejection ([1]; i.p., 10 or 20 days): dose-dependent
- inhibition of the rejection ([1]; throughout the administration period): Complete inhibition of the rejection

Source: patent US4778824A, “Method for suppressing a transplantation immunity and treating an allergic disease and an autoimmune disease” (Zaidan Hojin Biseibutsu Kagaku Kenkyu Kai, priority 1984, dated 1988)
